Experiments:
Assay in all cases: concentration in plasma after dosing
Mouse [1] = settings: 2.5 min; dosed: 2-Hydroxy-4-methoxybenzophenone; 250 mg/kg; oral; Male; B6C3F1
Rat [2] = tested on: Rat
Mouse [3] = settings: 10 min; dosed: 2-Hydroxy-4-methoxybenzophenone; 250 mg/kg; oral; Female; B6C3F1
Rat [4] = settings: 10 min; dosed: Nitrite; 80 mg/kg; oral; Female; F344
Rat [5] = settings: dosed: Nitrite, 20 mg/kg, iv, Male, F344
Rat [6] = settings: 5 min; dosed: Nitrite; 40 mg/kg; oral; Female; F344

COc1ccc(C(=O)c2ccccc2)c(O)c1 [2-Hydroxy-4-methoxybenzophenone]
Settings	concentration in plasma [ng/mL]
Mouse [1]	22
Mouse [3]	117

concentration in plasma [ng/mL], Rat [2], dosed: 2-Hydroxy-4-methoxybenzophenone, F344
Settings	0.25 h	2 h	2.5 min	3 h	4 h	6 h	10 h	10 min
8 mg/kg, iv, Female	1560	75.6	–	–	36.8	–	–	2540
8 mg/kg, iv, Male	1860	99.2	–	–	–	–	70.1	72.5
100 mg/kg, oral, Female	86.5	–	–	14.5	10.6	–	–	113
100 mg/kg, oral, Male	171	–	–	17.3	42.4	–	–	140
250 mg/kg, oral, Female	331	–	–	71.9	87.1	–	–	32.7
250 mg/kg, oral, Male	82.8	–	–	54.6	65.2	–	–	19.4
500 mg/kg, oral, Female	231	–	7.13	–	452	–	49.7	113
500 mg/kg, oral, Male	614	–	–	–	450	225	65.2	116

O=N[O-] [Nitrite]
Settings	concentration in plasma [ng/mL]
Rat [4]	31800
Rat [6]	9500

Rat [5]
Settings	concentration in plasma [ng/mL]
1.5 h	2000
20 min	2600

concentration in plasma [ng/mL], Rat [2], dosed: Nitrite
Settings	Female	Male
0.5 h, 20 mg/kg, iv, F344	–	2600
0.5 h, 40 mg/kg, oral, F344	6000	1900
0.5 h, 80 mg/kg, oral, F344	11300	–
0.75 h, 20 mg/kg, iv, F344	–	2400
1 h, 20 mg/kg, iv, F344	–	2000
1 h, 40 mg/kg, oral, F344	2900	3400
1 h, 80 mg/kg, oral, F344	9700	–
2 h, 40 mg/kg, oral, F344	2600	–
2 h, 80 mg/kg, oral, F344	7500	–
2 min, 20 mg/kg, iv, F344	–	14800
2 min, 40 mg/kg, oral, F344	3100	–
2 min, 40 mg/kg, oral, Harlan Sprague-Dawley	2200	–
2 min, 80 mg/kg, oral, F344	8200	–
4 h, 80 mg/kg, oral, F344	2400	–
5 min, 20 mg/kg, iv, F344	–	3100
5 min, 40 mg/kg, oral, F344	4800	–
5 min, 40 mg/kg, oral, Harlan Sprague-Dawley	1700	–
5 min, 80 mg/kg, oral, F344	12400	–
6 h, 80 mg/kg, oral, F344	2000	–
8 h, 80 mg/kg, oral, F344	1700	–
10 h, 80 mg/kg, oral, F344	1700	–
10 min, 20 mg/kg, iv, F344	–	4300
10 min, 40 mg/kg, oral, F344	5900	3400
10 min, 40 mg/kg, oral, Harlan Sprague-Dawley	2500	–
10 min, 80 mg/kg, oral, F344	7500	–
20 min, 20 mg/kg, iv, F344	–	900

Source: EPA's CvTdb concentration-time database
